Key:
[1] = system: HTG22 (DNA, G4) AGGGTTAGGGTTAGGGTTAGGG; test: SPR, Langmuir kinetic fit; conditions: 100 mM KCl; 50 mM Tris-HCl, pH 7.4, 25 °C; highest concentration 20 μM
[2] = system: F21T (DNA, G4) GGGTTAGGGTTAGGGTTAGGG; test: FRET melting; conditions: 60 mM KCl; 10 mM Tris-HCl, pH 7.4; 0.2 μM DNA; 1 μM compound (Figure S2A)
[3] = system: HTG21 (DNA, G4) GGGTTAGGGTTAGGGTTAGGG; test: CD titration; conditions: no added K+ or Na+; 10 mM Tris-HCl, pH 7.4, 25 °C; 5 μM DNA; 0 to 5 mol equiv; induces antiparallel G4
[4] = system: hairpin duplex DNA (DNA, hairpin) TTTTTTTTTCGAATTCGTTTTTCGAATTCG; test: SPR, Langmuir kinetic fit; conditions: 100 mM KCl; 50 mM Tris-HCl, pH 7.4, 25 °C; highest concentration 20 μM

KD [1] [µM] | SMILES | other results
170 | COc1ccc2cc3[n+](cc2c1OC)CCc1cc2c(cc1-3)OCO2 | binding [2]: weak
7.57 | COc1ccc2cc3[n+](cc2c1OCCCNC(=O)C(N)CCCCN)CCc1cc2c(cc1-3)OCO2 (stereo not shown) | KD [4]: 28900 µM
133 | COc1ccc2cc3[n+](cc2c1OCCN)CCc1cc2c(cc1-3)OCO2 | 

The remaining lines, values behind:

SMILES | KD [1] [µM] | other results
COc1ccc2cc3[n+](cc2c1NCCCN1CCCC1)CCc1cc2c(cc1-3)OCO2 | 29 | 
COc1ccc2cc3[n+](cc2c1NCCCN1CCCCC1)CCc1cc2c(cc1-3)OCO2 | 149 | 
COc1ccc2cc3[n+](cc2c1NCCN1CCCCC1)CCc1cc2c(cc1-3)OCO2 | 10.8 | 
COc1ccc2cc3[n+](cc2c1NCCO)CCc1cc2c(cc1-3)OCO2 | 680 | 
COc1ccc2cc3[n+](cc2c1OCCCCCCCl)CCc1cc2c(cc1-3)OCO2 |  | binding [3]: yes; binding [1]: yes
COc1ccc2cc3[n+](cc2c1OCCCNC(=O)C(N)CCCNC(=N)N)CCc1cc2c(cc1-3)OCO2 (stereo not shown) | 10.5 | KD [4]: 13900 µM

Source: PMC4742130 (2015)
